How the values were obtained:
[1] = target: T1, Imidazoleglycerol-phosphate dehydratase (Cryptococcus neoformans var. neoformans B-3501A, UniProt P0CO23); assay: Inhibitory concentration against imidazole glycerol phosphate dehydratase (IGPD) from Cryptococcus neoformans
[2] = target: T1, Imidazoleglycerol-phosphate dehydratase; assay: Binding affinity imidazole glycerol phosphate dehydratase (IGPD) obtained from Cryptococcus neoformans
[3] = target: Imidazoleglycerol-phosphate dehydratase (Cryptococcus neoformans var. neoformans B-3501A) (UniProt P0CO23); assay: Kinetic constant for the inhibition of imidazole glycerol phosphate dehydratase (IGPD)
Chain of Imidazoleglycerol-phosphate dehydratase (Cryptococcus neoformans var. neoformans B-3501A) (P0CO23 whole entry, looked up): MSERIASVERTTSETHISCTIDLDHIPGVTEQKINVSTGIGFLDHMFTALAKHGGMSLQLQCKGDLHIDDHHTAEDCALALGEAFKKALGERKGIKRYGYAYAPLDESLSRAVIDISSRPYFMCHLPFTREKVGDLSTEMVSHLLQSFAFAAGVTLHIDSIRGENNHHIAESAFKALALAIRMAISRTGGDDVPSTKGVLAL

T1 sequence (P0CO23 whole entry, looked up): as above

Which IC50 [1] does the source give for `O=C(CCC1CCCC1)NC(Cn1cncn1)CP(=O)(O)O` (centres undefined) here?
The IC50 was 3100 nM.

What about the Ki [2] of the same molecule?
Its Ki is 880 nM.

What about the Kis [3] of the same molecule?
The Kis was 3.7 µM.

How did the IC50 [1] turn out when `CC(C)(C)CC(=O)NC(Cn1cncn1)CP(=O)(O)O` (centres undefined) was run?
Its IC50 is 4800 nM.

What about the Ki [2] of the same molecule?
The Ki was 1130 nM.

What about the Kis [3] of the same molecule?
Its Kis is 5 µM.

What does the source list for `O=C(/C=C/c1ccccc1)NC(Cn1cncn1)CP(=O)(O)O` (centres undefined)?
IC50 [1]: 21000 nM; Ki [2]: 4500 nM; Kis [3]: 25 µM

For `CC1(CCC(=O)NC(Cn2cncn2)CP(=O)(O)O)SCCS1` (centres undefined), which IC50 [1] is on record?
The IC50 was 800 nM.

With `O=C(CCc1cccc([N+](=O)[O-])c1)NC(Cn1cncn1)CP(=O)(O)O` (centres undefined) as the molecule, how does the IC50 [1] read?
Its IC50 is 1500 nM.

For `O=C(CO)NC(Cn1cncn1)CP(=O)(O)O` (centres undefined), which IC50 [1] is on record?
Its IC50 is 910 nM.

And the Ki [2]?
Its Ki is 230 nM.

And the Kis [3]?
The Kis was 1.23 µM.

What does the source list for `O=C(Cc1ccccc1)NC(Cn1cncn1)CP(=O)(O)O` (centres undefined)?
IC50 [1]: 2700 nM; Ki [2]: 340 nM; Kis [3]: 3.9 µM

For `O=C(Cc1cccs1)NC(Cn1cncn1)CP(=O)(O)O` (centres undefined), which IC50 [1] is on record?
Its IC50 is 3500 nM.

What about the Ki [2] of the same molecule?
Its Ki is 560 nM.

And the Kis [3]?
Its Kis is 2.4 µM.

For `CNC(=O)C(=O)NC(Cn1cncn1)CP(=O)(O)O` (centres undefined), which IC50 [1] is on record?
Its IC50 is greater than 50000 nM.

What does the source list for `O=C(NC(Cn1cncn1)CP(=O)(O)O)c1ccccc1O` (centres undefined)?
IC50 [1]: 16000 nM; Ki [2]: 3500 nM; Kis [3]: 22 µM

What does the source list for `CCCCc1ccc(C(=O)NC(Cn2cncn2)CP(=O)(O)O)cc1` (centres undefined)?
IC50 [1]: 4100 nM; Ki [2]: 1300 nM; Kis [3]: 5.9 µM

What does the source list for `O=C(NC(Cn1cncn1)CP(=O)(O)O)c1c(F)cccc1F` (centres undefined)?
IC50 [1]: 4600 nM; Ki [2]: 1150 nM; Kis [3]: 5.8 µM

`O=C(CCC(=O)c1ccccc1)NC(Cn1cncn1)CP(=O)(O)O` (centres undefined) was tested. Which IC50 [1] did it give?
Its IC50 is 20000 nM.

Which IC50 [1] does the source give for `CCC(=O)NC(Cn1cncn1)CP(=O)(O)O` (centres undefined) here?
The IC50 was 6100 nM.

What about the Ki [2] of the same molecule?
The Ki was 1200 nM.

What about the Kis [3] of the same molecule?
Its Kis is 9 µM.

For `CC(C)=CC(=O)NC(Cn1cncn1)CP(=O)(O)O` (centres undefined), which IC50 [1] is on record?
Its IC50 is 4500 nM.

And the Ki [2]?
Its Ki is 1300 nM.

What about the Kis [3] of the same molecule?
The Kis was 5.5 µM.

How did the IC50 [1] turn out when `COCC(=O)NC(Cn1cncn1)CP(=O)(O)O` (centres undefined) was run?
Its IC50 is 10000 nM.

And the Ki [2]?
Its Ki is 2200 nM.

And the Kis [3]?
Its Kis is 17 µM.

Which results are given for `O=C(NC(Cn1cncn1)CP(=O)(O)O)c1ccco1` (centres undefined)?
IC50 [1]: > 50000 nM; Ki [2]: 7500 nM; Kis [3]: 33 µM

`C/C=C/C(=O)NC(Cn1cncn1)CP(=O)(O)O` (centres undefined) was tested. Which IC50 [1] did it give?
The IC50 was 4000 nM.

What about the Ki [2] of the same molecule?
Its Ki is 1450 nM.

What about the Kis [3] of the same molecule?
Its Kis is 5.6 µM.

How did the IC50 [1] turn out when `CC(Oc1ccccc1)C(=O)NC(Cn1cncn1)CP(=O)(O)O` (centres undefined) was run?
The IC50 was 1500 nM.

And the Ki [2]?
The Ki was 230 nM.

And the Kis [3]?
Its Kis is 1.22 µM.

Which IC50 [1] does the source give for `CC1(C)CC(=O)OC1CC(=O)NC(Cn1cncn1)CP(=O)(O)O` (centres undefined) here?
The IC50 was 2900 nM.

What does the source list for `O=C(NC(Cn1cncn1)CP(=O)(O)O)c1ccccc1` (centres undefined)?
IC50 [1]: > 50000 nM; Ki [2]: 10000 nM; Kis [3]: 100 µM

Which Ki [2] does the source give for `O=P(O)(O)CC(O)Cn1cncn1` (centres undefined) here?
The Ki was 0.6 nM.

Which results are given for `CCCCCC(=O)NC(Cn1cncn1)CP(=O)(O)O` (centres undefined)?
IC50 [1]: 840 nM; Ki [2]: 340 nM; Kis [3]: 1.22 µM

For `O=C(COc1ccccc1)NC(Cn1cncn1)CP(=O)(O)O` (centres undefined), which IC50 [1] is on record?
Its IC50 is 380 nM.

And the Ki [2]?
Its Ki is 80 nM.

And the Kis [3]?
Its Kis is 0.27 µM.

Which results are given for `O=C(COc1ccc(Cl)cc1)NC(Cn1cncn1)CP(=O)(O)O` (centres undefined)?
IC50 [1]: 2000 nM; Ki [2]: 550 nM; Kis [3]: 2.12 µM

For `NC(Cn1cncn1)CP(=O)(O)O` (centres undefined), which Ki [2] is on record?
The Ki was 15 nM.

`CC(=O)NC(Cn1cncn1)CP(=O)(O)O` (centres undefined) was tested. Which IC50 [1] did it give?
Its IC50 is 3900 nM.

And the Ki [2]?
Its Ki is 800 nM.

And the Kis [3]?
The Kis was 6.1 µM.

For `O=C(CSc1ccccc1)NC(Cn1cncn1)CP(=O)(O)O` (centres undefined), which IC50 [1] is on record?
The IC50 was 920 nM.

What about the Ki [2] of the same molecule?
Its Ki is 250 nM.

And the Kis [3]?
The Kis was 1.26 µM.

How did the IC50 [1] turn out when `O=C(CCc1ccccc1)NC(Cn1cncn1)CP(=O)(O)O` (centres undefined) was run?
Its IC50 is 960 nM.

And the Ki [2]?
The Ki was 270 nM.

And the Kis [3]?
The Kis was 1.14 µM.

With `COC(=O)CCCC(=O)NC(Cn1cncn1)CP(=O)(O)O` (centres undefined) as the molecule, how does the IC50 [1] read?
Its IC50 is 2800 nM.

And the Ki [2]?
The Ki was 700 nM.

And the Kis [3]?
Its Kis is 3.95 µM.

How did the IC50 [1] turn out when `O=C(NC(Cn1cncn1)CP(=O)(O)O)C1CC1` (centres undefined) was run?
The IC50 was 17000 nM.

And the Ki [2]?
The Ki was 4000 nM.

And the Kis [3]?
Its Kis is 19 µM.
